Assay results published in patent publication US4758589A, “Tetraphosphine-coordinated gold(I) complexes” (SmithKline Beckman Corporation, priority 1987, dated 1988).
Where “and” joins values, the source holds several entries; their conditions need not be identical. Equal entries are not always repeated.

Assays:
[1] = test system: B16 melanoma; assay: in vivo ip B16 melanoma assay; set-up: species or system mouse (B6D2F1); details: mice bearing ip B16 melanoma; ip daily for 10 days
Experimental: (§1) In this system, groups of eight B6D2F1 mice are inoculated ip with 0.5 ml of a 10% (w:v) brei of B15 melanoma prepared from pooled sc tumors excised at 14-21 days from […] donor mice. Daily treatment is begun 24 hours after tumor implantation and is continued daily for ten (10) days. The route of drug administration is ip. The mice are monitored daily for survival for sixty (60) days. Antitumor activity is assessed by prolongation of median survival time. An ILS of ≥25% indicates activity in this tumor model.

[2] = test system: M5076 reticulum cell sarcoma; assay: ip M5076 reticulum cell sarcoma tumor model; assay type: in vivo, mouse (B6D2F); details: mice bearing ip M5076 reticulum cell sarcoma; ip daily for 10 days
Experimental: (§2) Another chemosensitive tumor model is intraperitoneally (ip) implanted M5076 reticulum cell sarocma in mice. In this system B6D2F female mice are inoculated with 0.5 ml of a 10 percent (w:v) brei of M5076 prepared from pooled subcutaneous (sc) tumors excised at about 21 days from C57B1/6 donors. Drugs are administered ip. Daily treatment is begun 24 hours after implantation and is continued for ten days. The treatment regimen for M5076 is more prolonged than for P388 because of the slower growth rate and longer control survival time of the M5076 tumor. A drug is considered active in this tumor model if it produces ≥25% ILS.

[3] = maximally tolerated dose, mice, ip qD x 10 (Table B); assay type: in vivo, mouse (B6D2F1); details: B6D2F1 mice, ip qD x 10 regimen
Experimental: as §1
^(b) maximally tolerated dose for B6D2F1 mice on an ip qD .times

[4] = test system: P388 leukemia; assay: in vivo ip P388 lymphocytic leukemia mouse model; set-up: species or system mouse (B6D2F1); details: mice bearing ip P388 leukemia; ip Days 1-5; figures separated by slashes are from separate experiments
From the text: P388 lymphocytic leukemia is currently the most widely used animal tumor model for screening for antitumor agents and for detailed evaluation of active compounds. This tumor system is widely accepted as an antitumor agent screening tool because it is sensitive to virtually all of the clinically active antineoplastic agents; quantitative and reproducible; amenable for large-scale screening; and predictive for activity in other animal tumor models.
10^6 P388 leukemia cells are inoculated ip in B6D2F1 mice. Twenty-four hours later, if the tumor inoculum proves to be free of bacterial contamination (as determined by 24 hours incubation in thioglycollate broth), animals are randomized into groups of 6 and housed in shoebox cages. The compound to be evaluated is dissolved in a minimal volume of N,N-dimethylacetamide (DMA). An equal volume of saline is added; if the drug comes out of solution an equal volume of polyethoxylated castor oil is added and then saline qs to a concentration such that the desired dose is delivered in 0.5 ml. The final concentration of DMA and polyethoxylated castor oil is 10 percent. Dilutions for lower doses are made with saline so there is a decreasing proportion of organic solvents in the vehicle with decreasing dosage. This vehicle provides a soluble formulation. […] Animals are monitored daily for mortality and experiments are terminated after 45 days. […]

[5] = maximally tolerated dose, mice, ip qD x 10 (Table C); assay type: in vivo, mouse (B6D2F female); details: B6D2F female mice, ip qD x 10 regimen
Experimental: as §2
^(b) maximally tolerated dose for B6D2F female mice on ip qD ×

[6] = Struck et al., J. Med. Chem., 9, 414-417 (1966); cited from earlier work

Compound | ILS: maximum increase in lifespan [1] [%] | ILS (MAX): maximum increase in lifespan [2] [%] | MTD (maximally tolerated dose) [3] [mg/kg] | ILS (max): maximum increase in lifespan [4] | MTD (maximally tolerated dose) [5] [mg/kg] | cytotoxic activity [6]
[Cl][Au].c1ccc(P(CCP(CCP(c2ccccc2)c2ccccc2)c2ccccc2)CCP(c2ccccc2)c2ccccc2)cc1 (stereo not drawn) [Compound 1, Chloro[1,1,4,7,10,10-hexaphenyl-1,4,7,10-tetraphosphodecane-P^1, P^4, P^7, P^10]gold(I)] | 37 | 38 | 2 | 40% and 65% | 2 | –
c1ccc(P(CCP(c2ccccc2)c2ccccc2)c2ccccc2)cc1 [1,2-bis(diphenylphosphino)ethane] | – | – | – | – | – | cytotoxic activity
